How the values were obtained:
HCV RdRp (NS5B) = HCV RdRp (NS5B) (UniProt P26663); format: biochemical, hepatitis C virus
[1] = test system: Huh-7 cells, genotype 1b HCV replicon; experiment: Inhibition of HCV replication in cell culture, genotype 1b replicon; format: cell-based, hepatitis C virus; settings: for EC50: Hepatitis C virus, Huh-7, 24 h, Huh-7, genotype 1b replicon, intracellular HCV RNA 24 h after 3 daily doses, read-out: EC50; for Selectivity Index (CC50/EC50): genotype 1b replicon, CC50 by neutral red uptake
Protocol: Test compounds were solubilized at 30 mM in 100% tissue culture grade DMSO (Sigma, Inc.). Aliquots of test compounds sufficient for one daily treatment were made in individual tubes and all material was stored at −20° C. On each day of treatment, daily aliquots of the test compounds were suspended in culture medium at room temperature and immediately added to the cell cultures. Compounds were added to dividing cultures once daily for three days at concentrations ranging from about 30 μM to about 0.0003 μM. Media was changed with each addition of compound. The assays were started when cell cultures were at about 30-50% confluence, and the cells reached confluence during the last day of treatment. The assays included untreated control cultures (six total), and triplicate cultures treated with α-interferon and ribavirin as positive antiviral and toxicity controls.
Intracellular HCV RNA levels and cytotoxicity were assessed in triplicate 24 hours after the last compound dose.

Sequence of HCV RdRp (NS5B) (P26663 whole entry, looked up): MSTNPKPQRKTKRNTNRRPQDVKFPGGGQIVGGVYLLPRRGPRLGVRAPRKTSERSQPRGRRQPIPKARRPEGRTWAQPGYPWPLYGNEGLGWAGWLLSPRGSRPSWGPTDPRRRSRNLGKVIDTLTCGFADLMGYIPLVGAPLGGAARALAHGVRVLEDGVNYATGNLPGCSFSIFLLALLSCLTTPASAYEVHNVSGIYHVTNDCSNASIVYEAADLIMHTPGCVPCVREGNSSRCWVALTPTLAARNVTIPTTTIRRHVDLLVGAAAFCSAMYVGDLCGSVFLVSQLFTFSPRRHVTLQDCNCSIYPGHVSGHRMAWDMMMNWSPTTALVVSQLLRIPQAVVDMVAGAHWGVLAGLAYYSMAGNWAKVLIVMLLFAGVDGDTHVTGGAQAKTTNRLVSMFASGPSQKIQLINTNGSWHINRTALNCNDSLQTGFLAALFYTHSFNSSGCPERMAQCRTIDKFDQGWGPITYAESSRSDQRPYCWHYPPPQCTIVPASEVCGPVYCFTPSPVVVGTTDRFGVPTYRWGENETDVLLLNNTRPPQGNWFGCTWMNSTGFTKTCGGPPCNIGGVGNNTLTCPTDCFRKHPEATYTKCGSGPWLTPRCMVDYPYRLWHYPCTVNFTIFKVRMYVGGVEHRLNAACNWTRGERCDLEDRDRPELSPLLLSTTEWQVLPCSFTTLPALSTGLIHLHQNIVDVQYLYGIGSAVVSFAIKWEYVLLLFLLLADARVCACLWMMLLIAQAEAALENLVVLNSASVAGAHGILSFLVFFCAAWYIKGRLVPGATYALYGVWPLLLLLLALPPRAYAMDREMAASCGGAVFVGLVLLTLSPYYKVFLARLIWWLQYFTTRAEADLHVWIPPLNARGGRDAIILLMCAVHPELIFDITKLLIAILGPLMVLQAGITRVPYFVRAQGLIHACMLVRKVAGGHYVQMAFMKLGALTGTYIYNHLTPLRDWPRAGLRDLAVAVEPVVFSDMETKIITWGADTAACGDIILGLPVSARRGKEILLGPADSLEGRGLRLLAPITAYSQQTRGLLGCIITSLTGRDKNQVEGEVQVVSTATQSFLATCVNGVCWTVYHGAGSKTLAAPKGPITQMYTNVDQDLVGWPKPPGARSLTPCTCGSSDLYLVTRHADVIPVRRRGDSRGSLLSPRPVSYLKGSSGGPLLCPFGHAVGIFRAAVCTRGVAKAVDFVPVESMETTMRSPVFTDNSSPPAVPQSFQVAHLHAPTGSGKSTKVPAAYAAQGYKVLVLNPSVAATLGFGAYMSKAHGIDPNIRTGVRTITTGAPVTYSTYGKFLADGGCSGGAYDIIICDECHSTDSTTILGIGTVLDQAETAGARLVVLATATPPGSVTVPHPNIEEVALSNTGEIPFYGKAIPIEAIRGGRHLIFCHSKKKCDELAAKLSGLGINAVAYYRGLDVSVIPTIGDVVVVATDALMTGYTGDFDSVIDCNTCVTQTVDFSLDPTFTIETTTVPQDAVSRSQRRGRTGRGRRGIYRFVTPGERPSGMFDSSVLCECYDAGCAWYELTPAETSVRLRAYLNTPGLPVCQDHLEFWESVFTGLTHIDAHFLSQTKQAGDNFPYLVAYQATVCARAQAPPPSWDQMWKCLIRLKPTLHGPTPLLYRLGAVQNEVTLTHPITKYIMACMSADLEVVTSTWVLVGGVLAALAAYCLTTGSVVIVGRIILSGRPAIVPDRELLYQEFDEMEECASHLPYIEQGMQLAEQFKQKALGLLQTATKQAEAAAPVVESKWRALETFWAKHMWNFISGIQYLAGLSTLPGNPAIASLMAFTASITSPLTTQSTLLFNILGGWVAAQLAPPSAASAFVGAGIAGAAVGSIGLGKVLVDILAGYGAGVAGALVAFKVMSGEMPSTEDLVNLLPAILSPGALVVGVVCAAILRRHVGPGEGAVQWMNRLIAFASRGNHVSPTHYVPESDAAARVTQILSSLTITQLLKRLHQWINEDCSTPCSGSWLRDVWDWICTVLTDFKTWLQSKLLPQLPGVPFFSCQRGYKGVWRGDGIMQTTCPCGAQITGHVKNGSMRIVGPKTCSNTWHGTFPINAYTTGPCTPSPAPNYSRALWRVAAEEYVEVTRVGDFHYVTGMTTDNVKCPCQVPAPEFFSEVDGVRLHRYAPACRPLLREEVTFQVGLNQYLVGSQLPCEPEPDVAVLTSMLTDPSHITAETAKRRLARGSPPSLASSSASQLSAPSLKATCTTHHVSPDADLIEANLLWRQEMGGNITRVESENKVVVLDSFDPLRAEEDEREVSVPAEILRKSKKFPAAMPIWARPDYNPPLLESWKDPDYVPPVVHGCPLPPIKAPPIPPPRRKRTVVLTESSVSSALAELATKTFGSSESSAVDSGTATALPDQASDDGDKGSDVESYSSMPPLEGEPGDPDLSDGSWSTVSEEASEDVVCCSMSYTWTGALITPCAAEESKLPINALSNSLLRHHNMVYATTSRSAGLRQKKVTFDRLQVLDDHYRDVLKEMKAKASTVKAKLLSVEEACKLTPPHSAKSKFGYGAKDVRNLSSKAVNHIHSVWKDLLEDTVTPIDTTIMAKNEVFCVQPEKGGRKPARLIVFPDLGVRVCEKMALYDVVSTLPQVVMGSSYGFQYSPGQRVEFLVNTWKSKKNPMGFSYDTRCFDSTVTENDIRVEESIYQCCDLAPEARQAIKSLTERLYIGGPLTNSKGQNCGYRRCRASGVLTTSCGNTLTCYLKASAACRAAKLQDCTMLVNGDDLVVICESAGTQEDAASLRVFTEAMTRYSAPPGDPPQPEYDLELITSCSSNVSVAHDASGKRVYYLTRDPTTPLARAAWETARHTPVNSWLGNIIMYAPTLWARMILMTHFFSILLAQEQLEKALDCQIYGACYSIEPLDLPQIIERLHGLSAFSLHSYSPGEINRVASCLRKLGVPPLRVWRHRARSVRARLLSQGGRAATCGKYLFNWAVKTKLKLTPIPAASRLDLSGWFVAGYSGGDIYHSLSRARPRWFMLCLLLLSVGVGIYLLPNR

Cc1ccc(NC(=O)[C@H](CCCCN)NC(=O)CNc2cccc(Oc3ccccc3)c2)cc1 [Compound 367, (S)-6-AMINO-2-[2-(3-PHENOXY-PHENYLAMINO)-ACETYLAMINO]-HEXANOIC ACID P-TOLYLAMIDE]
IC50 (HCV RdRp (NS5B)): < 10 µM
EC50 [1]: > 2 µM
Selectivity Index (CC50/EC50) [1]: <20

Cc1ccc(NC(=O)C(Cc2ccc(CN)cc2)NC(=O)Nc2ccc(OCc3ccccc3)cc2)cc1 [Compound 146, (S)-3-(4-AMINOMETHYL-PHENYL)-2-[3-(4-BENZYLOXY-PHENYL)-UREIDO]-N-P-TOLYL-PROPIONAMIDE]
IC50 (HCV RdRp (NS5B)): < 10 µM
EC50 [1]: < 0.5 µM
Selectivity Index (CC50/EC50) [1]: 20 to 100

CC1CCC(NC(=O)[C@H](CCCCN)NC(=O)Nc2ccc(OCc3ccccc3)cc2)CC1 (stereo partly drawn) [Compound 264, (S)-6-AMINO-2-[3-(4-BENZYLOXY-PHENYL)-UREIDO]-HEXANOIC ACID (4-METHYL-CYCLOHEXYL)-AMIDE]
IC50 (HCV RdRp (NS5B)): 10 to 50 µM
EC50 [1]: < 0.5 µM
Selectivity Index (CC50/EC50) [1]: >100

Cc1ccc(NC(=O)C(CCCCN)NC(=O)Nc2ccc(-c3nc4ccc(C)cc4s3)cc2)cc1 [Compound 214, (S)-6-AMINO-2-{3-[4-(6-METHYL-BENZOTHIAZOL-2-YL)-PHENYL]-UREIDO}-HEXANOIC ACID P-TOLYLAMIDE]
IC50 (HCV RdRp (NS5B)): < 10 µM
EC50 [1]: > 2 µM
Selectivity Index (CC50/EC50) [1]: <20

Cc1ccc(NC(=O)C(CCCCN)NC(=O)Nc2nnc(COc3ccc(C)cc3)s2)cc1 [Compound 272, (S)-6-AMINO-2-[3-(5-P-TOLYLOXYMETHYL-[1,3,4] THIADIAZOL-2-YL)-UREIDO]-HEXANOIC ACID P-TOLYLAMIDE]
IC50 (HCV RdRp (NS5B)): 10 to 50 µM
EC50 [1]: 0.5 to 2 µM
Selectivity Index (CC50/EC50) [1]: 20 to 100

NCCCC[C@H](NC(=O)Nc1ccc(OCc2ccccc2)cc1)C(=O)Nc1ccc(C2CCCCC2)cc1 [Compound 117, (S)-6-AMINO-2-[3-(4-BENZYLOXY-PHENYL)-UREIDO]-HEXANOIC ACID (4-CYCLOHEXYL-PHENYL)-AMIDE]
IC50 (HCV RdRp (NS5B)): < 10 µM
EC50 [1]: > 2 µM
Selectivity Index (CC50/EC50) [1]: <20

Cc1ccc(NC(=O)[C@H](CCCCN)NC(=O)CNC2Cc3ccccc3C2)cc1 [Compound 336, (S)-6-AMINO-2-[2-(INDAN-2-YLAMINO)-ACETYLAMINO]-HEXANOIC ACID P-TOLYLAMIDE]
IC50 (HCV RdRp (NS5B)): > 50 µM

CC(C)(C)OC(=O)NCC(=O)NCc1ccccc1NC(=O)CNC(=O)OCC1c2ccccc2-c2ccccc21 [Compound 325, ({2-[2-(9H-FLUOREN-9-YLMETHOXYCARBONYLAMINO)-ACETYLAMINO]-BENZYLCARBAMOYL}-METHYL)-CARBAMIC ACID TERT-BUTYL ESTER]
IC50 (HCV RdRp (NS5B)): > 50 µM

COc1ccc(NC(=O)N[C@@H](CCCCN)C(=O)Nc2ccc(C)cc2)cc1 [Compound 300, (S)-6-AMINO-2-[3-(4-METHOXY-PHENYL)-UREIDO]-HEXANOIC ACID P-TOLYLAMIDE]
IC50 (HCV RdRp (NS5B)): > 50 µM

Cc1ccc(NC(=O)C(CNC(=O)CCN)NC(=O)OCC2c3ccccc3-c3ccccc32)cc1 [Compound 178, (S)-[2-(3-AMINO-PROPIONYLAMINO)-1-P-TOLYLCARBAMOYL-ETHYL]-CARBAMIC ACID 9H-FLUOREN-9-YLMETHYL ESTER]
IC50 (HCV RdRp (NS5B)): 10 to 50 µM

CNCC(=O)NCCCC(NC(=O)OCC1c2ccccc2-c2ccccc21)C(=O)Nc1ccc(C)cc1 [Compound 223, (S)-[4-(2-METHYLAMINO-ACETYLAMINO)-1-P-TOLYLCARBAMOYL-BUTYL]-CARBAMIC ACID 9H-FLUOREN-9-YLMETHYL ESTER]
IC50 (HCV RdRp (NS5B)): 10 to 50 µM

COc1ccc(CNCC(=O)N[C@@H](CCCCN)C(=O)Nc2ccc(C)cc2)cc1 [Compound 343, (S)-6-AMINO-2-[2-(4-METHOXY-BENZYLAMINO)-ACETYLAMINO]-HEXANOIC ACID P-TOLYLAMIDE]
IC50 (HCV RdRp (NS5B)): > 50 µM

Cc1ccc(NC(=O)C(Cc2ccc(N)cc2)NC(=O)OCC2c3ccccc3-c3ccccc32)cc1 [Compound 180, (S)-[2-(4-AMINO-PHENYL)-1-P-TOLYLCARBAMOYL-ETHYL]-CARBAMIC ACID 9H-FLUOREN-9-YLMETHYL ESTER]
IC50 (HCV RdRp (NS5B)): > 50 µM

Cc1ccc(NC(=O)C(CCCCN)NC(=O)Nc2ccc(N3CCCCC3)cc2)cc1 [Compound 269, (S)-6-AMINO-2-[3-(4-PIPERIDIN-1-YL-PHENYL)-UREIDO]-HEXANOIC ACID P-TOLYLAMIDE]
IC50 (HCV RdRp (NS5B)): > 50 µM

Cc1ccc(NC(=O)C(CCCN)NC(=O)Nc2ccc(-c3ccccc3)cc2)cc1 [Compound 188, (S)-5-AMINO-2-(3-BIPHENYL-4-YL-UREIDO)-PENTANOIC ACID P-TOLYLAMIDE]
IC50 (HCV RdRp (NS5B)): > 50 µM

Cc1ccc(NC(=O)[C@H](CCCCN)NC(=O)Nc2ccc3c(c2)OCCO3)cc1 [Compound 213, (S)-6-AMINO-2-[3-(2,3-DIHYDRO-BENZO[1,4]DIOXIN-6-YL)-UREIDO]-HEXANOIC ACID P-TOLYLAMIDE]
IC50 (HCV RdRp (NS5B)): > 50 µM

Cc1cc2cc(NC(=O)[C@H](Cc3ccc(CN)cc3)NC(=O)Nc3ccc4c(c3)Cc3ccccc3-4)ccc2[nH]1 [Compound 235, (S)-3-(4-AMINOMETHYL-PHENYL)-2-[3-(9H-FLUOREN-2-YL)-UREIDO]-N-(2-METHYL-1H-INDOL-5-YL)-PROPIONAMIDE]
IC50 (HCV RdRp (NS5B)): < 10 µM

Cc1ccc(NC(=O)C(Cc2ccc(O)cc2)NC(=O)OCC2c3ccccc3-c3ccccc32)cc1 [Compound 380, (R)-[2-(4-HYDROXY-PHENYL)-1-P-TOLYLCARBAMOYL-ETHYL]-CARBAMIC ACID 9H-FLUOREN-9-YLMETHYL ESTER]
IC50 (HCV RdRp (NS5B)): > 50 µM

Cc1ccc(NC(=O)[C@@H](CCCN)NC(=O)Nc2ccc3c(c2)Cc2ccccc2-3)cc1 [Compound 193, (R)-5-AMINO-2-[3-(9H-FLUOREN-2-YL)-UREIDO]-PENTANOIC ACID P-TOLYLAMIDE]
IC50 (HCV RdRp (NS5B)): < 10 µM

Cc1ccc(NC(=O)[C@H](CCCCN)NC(=O)COc2ccc(I)cc2)cc1 [Compound 327, (S)-6-AMINO-2-[2-(4-IODO-PHENOXY)-ACETYLAMINO]-HEXANOIC ACID P-TOLYLAMIDE]
IC50 (HCV RdRp (NS5B)): > 50 µM

Cc1ccc(NC(=O)C(CCNC(=O)CN)NC(=O)OCC2c3ccccc3-c3ccccc32)cc1 [Compound 221, (S)-[3-(2-AMINO-ACETYLAMINO)-1-P-TOLYLCARBAMOYL-PROPYL]-CARBAMIC ACID 9H-FLUOREN-9-YLMETHYL ESTER]
IC50 (HCV RdRp (NS5B)): > 50 µM

Cc1ccc(NC(=O)[C@H](CCCCN)NC(=O)Nc2ccc(OCc3c(F)cccc3F)cc2)cc1 [Compound 287, (S)-6-AMINO-2-{3-[4-(2,6-DIFLUORO-BENZYLOXY)-PHENYL]-UREIDO}-HEXANOIC ACID P-TOLYLAMIDE]
IC50 (HCV RdRp (NS5B)): 10 to 50 µM

Cc1ccc(NC(=O)C(CCCCN)NC(=O)Nc2ccc(OC(C)c3ccccc3)cc2)cc1 [Compound 277, (2S)-6-AMINO-2-{3-[4-(1-PHENYL-ETHOXY)-PHENYL]-UREIDO}-HEXANOIC ACID P-TOLYLAMIDE]
IC50 (HCV RdRp (NS5B)): > 50 µM

Cc1ccc(NC(=O)C[C@H](CCCCN)NC(=O)Nc2ccc3c(c2)Cc2ccccc2-3)cc1 [Compound 247, (S)-7-AMINO-3-[3-(9H-FLUOREN-2-YL)-UREIDO]-HEPTANOIC ACID P-TOLYLAMIDE]
IC50 (HCV RdRp (NS5B)): 10 to 50 µM

CC(C)(NC(=O)c1ccc(C(=O)O)cc1)C(=O)Nc1ccc(CN(C(=O)c2ccco2)C2CCCCC2)cc1 [Compound 4, N-[1-(4-{[CYCLOHEXYL-(FURAN-2-CARBONYL)-AMINO]-METHYL}-PHENYLCARBAMOYL)-1-METHYL-ETHYL]-TERE[…]]
IC50 (HCV RdRp (NS5B)): > 50 µM

Cc1ccc(NC(=O)C(CCCNC(N)=O)NC(=O)OCC2c3ccccc3-c3ccccc32)cc1 [Compound 113, (S)-(1-P-TOLYLCARBAMOYL-4-UREIDO-BUTYL)-CARBAMIC ACID 9H-FLUOREN-9-YLMETHYL ESTER]
IC50 (HCV RdRp (NS5B)): > 50 µM

Cc1ccc(NC(=O)[C@H](CCCCN)NC(=O)Nc2ccc(OCc3ccccc3)cc2)cc1C [Compound 254, (S)-6-AMINO-2-[3-(4-BENZYLOXY-PHENYL)-UREIDO]-HEXANOIC ACID (3,4-DIMETHYL-PHENYL)-AMIDE]
IC50 (HCV RdRp (NS5B)): 10 to 50 µM

NCCCC[C@H](N)C(=O)Nc1ccc(CN(C(=O)c2ccco2)C2CCCCC2)cc1 [Compound 7, (S)-FURAN-2-CARBOXYLIC ACID CYCLOHEXYL-[4-(2,6-DIAMINO-HEXANOYLAMINO)-BENZYL]-AMIDE]
IC50 (HCV RdRp (NS5B)): > 50 µM

C[C@H](N)C(=O)Nc1ccc(CN(C(=O)c2ccco2)C2CCCCC2)cc1 [Compound 12, (S)-FURAN-2-CARBOXYLIC ACID [4-(2-AMINO-PROPIONYLAMINO)-BENZYL]-CYCLOHEXYL-AMIDE]
IC50 (HCV RdRp (NS5B)): > 50 µM

Cc1cc2cc(NC(=O)[C@H](CCCCNC(=O)CN)NC(=O)Nc3ccc(OCc4ccccc4)cc3)ccc2[nH]1 [Compound 239, (S)-6-(2-AMINO-ACETYLAMINO)-2-[3-(4-BENZYLOXY-PHENYL)-UREIDO]-HEXANOIC ACID (2-METHYL-1H-INDOL-5-YL)-AMIDE]
IC50 (HCV RdRp (NS5B)): < 10 µM

Cc1ccc(NC(=O)C(CCCNC(=N)N(C)C)NC(=O)OCC2c3ccccc3-c3ccccc32)cc1 [Compound 111, (S)-[4-(3,3-DIMETHYL-GUANIDINO)-1-P-TOLYLCARBAMOYL-BUTYL]-CARBAMIC ACID 9H-FLUOREN-9-YLMETHYL ESTER]
IC50 (HCV RdRp (NS5B)): > 50 µM

Cc1ccc(NC(=O)C(CCCCN)NC(=O)Cc2ccc3ccccc3c2)cc1 [Compound 48, (S)-6-AMINO-2-(2-NAPHTHALEN-2-YL-ACETYLAMINO)-HEXANOIC ACID P-TOLYLAMIDE]
IC50 (HCV RdRp (NS5B)): > 50 µM

Cc1ccc(NC(=O)[C@H](CCCCN)NS(=O)(=O)c2ccc(Cl)cc2)cc1 [Compound 391, (S)-6-AMINO-2-(4-CHLORO-BENZENESULFONYLAMINO)-HEXANOIC ACID P-TOLYLAMIDE]
IC50 (HCV RdRp (NS5B)): > 50 µM

Cc1ccc(NC(=O)C(CCCNC(=O)CN)NC(=O)OCC2c3ccccc3-c3ccccc32)cc1 [Compound 177, (S)-[4-(2-AMINO-ACETYLAMINO)-1-P-TOLYLCARBAMOYL-BUTYL]-CARBAMIC ACID 9H-FLUOREN-9-YLMETHYL ESTER]
IC50 (HCV RdRp (NS5B)): < 10 µM

Reference: patent publication US20070021434A1, “NON-NUCLEOSIDE ANTI-HEPACIVIRUS AGENTS AND USES THEREOF” (Migenix Inc., priority 2005, published 2007)
